{"source": "ChEMBL document CHEMBL1158975", "about": "“An antiviral sesquiterpene hydroquinone from the marine sponge Strongylophora hartmani” (J Nat Prod, 1991)", "key": {"[1]": {"test": "Therapeutic index, ratio of cytotoxicity against MDCK cells to IC50 for influenza virus A/Puerto Rico/8/34 H1N1", "format": "cell-based", "settings": "dog, read-out: TI"}, "Influenza A virus": {"test_system": "Influenza A virus", "test": "Antiviral activity against influenza virus A/Puerto Rico/8/34 H1N1 in MDCK cells assessed as reduction in virus-induced cytopathic effect after 3 days by neutral red uptake assay", "format": "functional, organism-based", "settings": "A/Puerto Rico/8/1934(H1N1), 72 h"}, "P388": {"test_system": "P388", "test": "Cytotoxicity against mouse P388 cells by microculture tetrazolium assay", "format": "functional, cell-based"}}, "data": [{"smiles": "COc1ccc(OC(C)=O)c2c1C[C@]1(C)[C@@H](C)CC[C@H]3C(C)(C)CCC[C@]31O2", "values": [{"measurement": "selectivity ratio", "setting": "[1]", "result": 100}, {"measurement": "IC50", "setting": "Influenza A virus", "result": 5, "unit": "µg/mL"}, {"measurement": "IC50", "setting": "P388", "result": 23.8, "unit": "µg/mL"}]}, {"smiles": "COc1ccc(O)c2c1C[C@]1(C)[C@@H](C)CC[C@H]3C(C)(C)CCC[C@]31O2", "note": "[STRONGYLIN A]", "values": [{"measurement": "selectivity ratio", "setting": "[1]", "result": 9}, {"measurement": "IC50", "setting": "Influenza A virus", "result": 6.5, "unit": "µg/mL"}, {"measurement": "IC50", "setting": "P388", "result": 13, "unit": "µg/mL"}]}]}
